# Read-outs that look alike come from different tables or passages of the source.
# Experiments:
# murine splenocytes = test: ConA mitogen-stimulated proliferation of murine splenocytes ([3H]-thymidine incorporation); assay type: cell-based, mouse (BALB/c); conditions: for IC50: ConA 1 μg/ml, 100,000 spleen cells, Experiment I, read-out: IC50 in inhibition of ConA induced murine splenocyte proliferation
# Method: (§1) Proliferation was assessed by the incorporation of [^3H]-thymidine into DNA. Eight-week-old female BALB/c mice were obtained from Harlan (Bicester, Oxon, UK) and given food and water ad libitum. Splenocyte suspensions were prepared by removing the spleens and placing them into RPMI 1640 medium. The spleens were forced through 70-μm-pore-size wire gauzes using the plunger from a 5-ml syringe to produce a single cell suspension. The cells were pelleted by centrifugation, and erythrocytes were lysed with 0.017 M Tris, 0.144 M ammonium chloride buffer, pH 7.2. Leucocytes were washed twice with RPMI 1640 medium with 2% (vol/vol) foetal calf serum (FCS) and resuspended in complete cell culture medium (CTCM) consisting of RPMI 1640 medium with 5% FCS, 2 mM L-glutamine, and 5×10^−5 M 2-mercaptoethanol. HSL compounds were tested at doubling down dilutions ranging from 1 mM to 0.1 μM in a final volume of 200 μl of CTCM, containing ConA (Sigma, Poole, UK) at 1 μg/ml and 100,000 spleen cells. Following incubation for 48 h at 37° C. in 5% CO2-air, 0.25 μCi [^3H]-thymidine (Amersham) in 10 μl volume made up in RPMI 1640 medium was added and the cells were incubated for a further 24 h. Cells were harvested onto fibreglass filters with a Packard filtermate harvester. After the addition of 25 μl of MicroScint-O (Packard) to each well the filters were counted with the Packard TopCount scintillation counter.
# (§2) Mitogen (Concanavalin A) induced murine splenocyte proliferation was indicated by the incorporation of tritated thymidine into the DNA in the mouse spleen cells as shown by counts per minute using the scintillation counter. The inhibitory effect of an HSL compound being tested on cell proliferation was indicated by a reduction in counts per minute.
# as §1, with “70 μm pore size” for “70-μm-pore-size”, “5 ml” for “5-ml”, “The title compound was” for “HSL compounds were”, “dilutions” for “dilutions ranging from 1 mM to 0.1 μM in a final volume of 200 μl of CTCM,”, “g/ml” for “μg/ml”, “COrair,” for “CO2-air,”
# as §2, with “the title” for “an HSL”
# human PBMC = test: ConA mitogen-stimulated proliferation of human PBMC ([3H]-thymidine incorporation); assay type: cell-based; conditions: Experiment II, read-out: IC50 in inhibition of ConA induced cell proliferation of PBMC
# Method: Blood specimens were obtained with consent from healthy human volunteers. Human peripheral blood mononuclear cells (PBMC) were isolated from heparinised whole blood by buoyant density centrifugation over Histopaque 1077 (Sigma, Poole, UK) at 600 g for 20 minutes. PBMC harvested from the ‘buffy’ layers were washed twice with RPMI 1640 medium and resuspended in CTCM. […] Human PBMC were incubated for 48 h at 37° C. in 5% CO2-air, followed by pulsing with 0.25 μCi [^3H]-thymidine (see above). After a further incubation of 24 h cells were harvested onto fibreglass filters and then counted in the presence of MicroScint-O with the Packard TopCount.
# Concanavalin induced cell proliferation of human peripheral blood mononuclear cells (PBMC) was tracked, as described in I above, by a measurement of counts per minute using the scintillation counter. The inhibitory effect of an HSL compound being tested on cell proliferation was indicated by a reduction in counts per minute. […] Columns B, C and D represent different sources of human PBMC samples used.
# Plots of counts per minute (cpm) against the concentration of the quorum sensing molecules and the vehicle are shown in FIG. 11.
Molecule,IC50 (murine splenocytes),also measured
"CCCCCCCCC(=O)CC(=O)N[C@H]1CCOC1=O [Example 1, N-(3-oxoundecanoyl)-L-homoserine lactone]",9 µM,IC50 (human PBMC; human PBMC source B): 63 µM; IC50 (human PBMC; human PBMC source C): 13 µM; IC50 (human PBMC; human PBMC source D): 44 µM
"O=C(CCCCCCCCBr)CC(=O)N[C@H]1CCOC1=O [Example 2, N-(11-Bromo-3-oxoundecanoyl)-L-homoserine lactone]",6 µM,IC50 (human PBMC; human PBMC source B): 18 µM
"CC(C)CCCCCCC(=O)CC(=O)N[C@H]1CCOC1=O [Example 3, N-(10-Methyl-3-oxoundecanoyl)-L-homoserine lactone]",8 µM,IC50 (human PBMC; human PBMC source D): 25 µM
"COC(=O)CCCCCCC(=O)CC(=O)N[C@H]1CCOC1=O [Example 4, N-(10-Methoxycarbonyl-3-oxodecanoyl)-L-homoserine lactone]",73 µM,IC50 (human PBMC; human PBMC source B): 20 µM; IC50 (human PBMC; human PBMC source D): 63 µM
"CCCCCC(C)CCC(=O)CC(=O)N[C@H]1CCOC1=O (stereo partly drawn) [Example 5, N-(6-Methyl-3-oxoundecanoyl)-L-homoserine lactone]",5 µM,IC50 (human PBMC; human PBMC source B): 20 µM
"CCCCCCCCCCC(=O)CC(=O)N[C@H]1CCOC1=O [Example 8, N-(3-Oxotridecanoyl)-L-homoserine lactone]",4 µM,IC50 (human PBMC; human PBMC source B): 41 µM; IC50 (human PBMC; human PBMC source C): 7 µM; IC50 (human PBMC; human PBMC source D): 25 µM
"C=CCCCCCCCCC(=O)CC(=O)N[C@H]1CCOC1=O [Example 10, N-(3-Oxo-12-tridecenoyl)-L-homoserine lactone]",7 µM,–
"O=C(CCCCCCCCCCCBr)CC(=O)N[C@H]1CCOC1=O [Example 12, N-(14-Bromo-3-oxotetradecanoyl)-L-homoserine lactone]",8 µM,–
"CCCCCCC=CCCCC(=O)CC(=O)N[C@H]1CCOC1=O [Example 14, N-(3-Oxo-7-tetradecenoyl)-L-homoserine lactone]",17 µM,–
"CCCC=CCCCCCCC(=O)CC(=O)N[C@H]1CCOC1=O [Example 16, N-(3-Oxo-10-tetradecenoyl)-L-homoserine lactone]",15 µM,–
"CCC=CCCCCCCCC(=O)CC(=O)N[C@H]1CCOC1=O [Example 17, N-(3-Oxo-11-tetradecenoyl)-L-homoserine lactone]",12 µM,–
"C=CCCCCCCCCCC(=O)CC(=O)N[C@H]1CCOC1=O [Example 18, N-(3-Oxo-13-tetradecenoyl)-L-lactone homoserine]",10 µM,–
"CN(C)C(=O)CCCCCCCCC(=O)CC(=O)N[C@H]1CCOC1=O [Example 20, N-[11-(N,N-Dimethylcarbamoyl)-3-oxoundecanoyl]-L-homoserine lactone]",35 µM,–
"CCCCCCCCCC(O)CC(=O)N[C@H]1CCOC1=O (stereo partly drawn) [Example 21, N-(3-Hydroxydodecanoyl)-L-homoserine lactone]",12 µM,–
"CCCCCCCCCCCC(O)CC(=O)N[C@H]1CCOC1=O (stereo partly drawn) [Example 22, N-(3-Hydroxytetradecanoyl)-L-homoserine lactone]",7 µM,–
"CCCCCCC=CCCCC(O)CC(=O)N[C@H]1CCOC1=O (stereo partly drawn) [Example 23, N-(3-Hydroxy-7-tetradecenoyl)-L-homoserine lactone]",12 µM,–
"CCCC=CCCCCCCC(O)CC(=O)N[C@H]1CCOC1=O (stereo partly drawn) [Example 25, N-(3-Hydroxy-10-tetradecenoyl)-L-homoserine lactone]",20 µM,–
"CCC=CCCCCCCCC(O)CC(=O)N[C@H]1CCOC1=O (stereo partly drawn) [Example 26, N-(3-Hydroxy-11-tetradecenoyl)-L-homoserine lactone]",20 µM,–
"C=CCCCCCCCCCC(O)CC(=O)N[C@H]1CCOC1=O (stereo partly drawn) [Example 27, N-(3-Hydroxy-13-tetradecenoyl)-L-homoserine lactone]",18 µM,–
"CCCCCC(=O)CC(=O)N[C@H]1CCOC1=O [OOHL, N-(3-oxooctanoyl)-L-homoserine lactone, reference compound]",–,"inhibition of ConA induced murine splenocyte proliferation (cpm), in words (murine splenocytes; ConA 1 μg/ml, BALB/c splenocytes): failed to inhibit proliferation"
N-(3-Hydroxy-9-tetradecenoyl)-L-homoserine lactone [Example 24],15 µM,–

# — US7371779B2, “Synergistic compositions of N-acylhomoserine lactones and 4-quinolones” (The Secretary of State for Defense Science and Technology, priority 2001, dated 2008)
